Data published in publication PMC8119466, “A screen of FDA-approved drugs identifies inhibitors of protein tyrosine phosphatase 4A3 (PTP4A3 or PRL-3)” (Scientific Reports, 2021).
Counter-ions that a name gives are not always drawn. Like-named read-outs stand apart in the source and are kept apart here.

Legend:
Type in all cases: biochemical
recombinant PRL-1 = target: T1, recombinant PRL-1 (Homo sapiens, UniProt Q93096); assay: In vitro phosphatase assay (DiFMUP hydrolysis), PRL-1; note: test concentration or dose not given here
T1 construct: 6xHis (N, cleaved yes); made in house; host or cells: E. coli One Shot BL21 Star
T1 sequence (Q93096 1-173): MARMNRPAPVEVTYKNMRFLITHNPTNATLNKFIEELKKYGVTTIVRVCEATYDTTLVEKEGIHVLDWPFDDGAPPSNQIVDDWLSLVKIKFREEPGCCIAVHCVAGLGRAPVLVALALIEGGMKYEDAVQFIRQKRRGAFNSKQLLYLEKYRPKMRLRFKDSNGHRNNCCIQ

recombinant PRL-2 = target: T2, recombinant PRL-2 (Homo sapiens, UniProt Q12974); assay: In vitro phosphatase assay (DiFMUP hydrolysis), PRL-2;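 note: PRL-2 activity read as DiFMUP hydrolysis after 20 min at room temperature with drug, enzyme first pre-reduced at 4 °C for 20 min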
T2 construct: 6xHis (N, cleaved yes); made in house; host or cells: E. coli One Shot BL21 Star
T2 sequence (Q12974 1-167): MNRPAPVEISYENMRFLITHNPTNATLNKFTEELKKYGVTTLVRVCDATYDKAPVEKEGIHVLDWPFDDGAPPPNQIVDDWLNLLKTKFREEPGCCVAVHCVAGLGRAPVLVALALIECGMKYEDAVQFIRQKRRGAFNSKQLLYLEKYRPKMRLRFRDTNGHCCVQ

recombinant PRL-3 = target: T3, recombinant PRL-3 (Homo sapiens, UniProt O75365); assay: In vitro phosphatase assay (DiFMUP hydrolysis), PRL-3; note: test concentration or dose not given here
T3 construct: 6xHis (N, cleaved yes); made in house; host or cells: E. coli One Shot BL21 Star
T3 sequence (O75365 whole entry): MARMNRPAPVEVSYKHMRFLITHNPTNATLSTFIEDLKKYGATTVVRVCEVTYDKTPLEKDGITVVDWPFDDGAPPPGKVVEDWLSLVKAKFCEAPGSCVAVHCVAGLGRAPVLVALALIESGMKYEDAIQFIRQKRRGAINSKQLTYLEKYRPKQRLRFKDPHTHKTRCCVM

[1] = FDA-approved drug screen, compared to DMSO
[2] = FDA-approved drug screen, activity compared to DMSO

Compound | % Phosphatase Activity (compared to DMSO) PRL-1 (recombinant PRL-1; [1]) [%] | % Phosphatase Activity (compared to DMSO) PRL-2 (recombinant PRL-2; [1]) [%] | % Phosphatase Activity (compared to DMSO) PRL-3 (recombinant PRL-3; [1]) [%] | further results
CC(C)NC[C@H](O)COc1ccc(CCOCC2CC2)cc1.Cl [Levobetaxolol HCl] |  |  |  | % Phosphatase Activity (compared to DMSO) PRL-1 (recombinant PRL-1): 100%; % Phosphatase Activity (compared to DMSO) PRL-2 (recombinant PRL-2): 99%; % Phosphatase Activity (compared to DMSO) PRL-3 (recombinant PRL-3): 69%
CC/C(=C(/CC)c1ccc(O)cc1)c1ccc(O)cc1 [Diethylstilbestrol] | 86 | 97 | 92 | 
CCN(CC)CC#CCOC(=O)C(O)(c1ccccc1)C1CCCCC1 (stereo not drawn) [Oxybutynin] | 91 | 99 | 118 | 
CC(C)[C@H](O)C(=O)N[C@@H](C)C(=O)N[C@@H]1C(=O)N(C)CCc2ccccc21 [Semagacestat (LY450139)] | 104 | 120 | 86 | 
C[C@]1(O)C[C@@H](c2nc(-c3ccc4ccc(-c5ccccc5)nc4c3)c3c(N)nccn32)C1 [OSI-906 (Linsitinib)] | 79 | 96 | 77 | 
CC(C)C[C@H](NC(=O)[C@@H](NC(=O)c1cccc(-c2ccccc2)n1)[C@@H](C)O)B(O)O [CEP-18770 (Delanzomib)] | 103 | 98 | 82 | 
NCCc1ccc(O)c(O)c1 [Dopamine HCl] |  |  |  | % Phosphatase Activity (compared to DMSO) PRL-1 (recombinant PRL-1): 125%; % Phosphatase Activity (compared to DMSO) PRL-2 (recombinant PRL-2): 119%; % Phosphatase Activity (compared to DMSO) PRL-3 (recombinant PRL-3): 82%
CCN(CC)CCNC(=O)c1cc(Cl)c(N)cc1OC.Cl [MetoclopraMide HCl] | 97 | 84 | 75 | 
O=C1CN(/N=C/c2ccc(-c3ccc([N+](=O)[O-])cc3)o2)C(O)=N1 [Dantrolene sodium] | 76 | 75 | 60 | 
COC(=O)C1=C(C)NC(C)=C(C(=O)OC(C)(C)CN(C)CCC(c2ccccc2)c2ccccc2)C1c1cccc([N+](=O)[O-])c1.Cl (stereo not drawn) [Lercanidipine (hydrochloride)] | 87 | 101 | 84 | 
CNC[C@H](O)[C@@H](O)[C@H](O)[C@H](O)CO [Meglumine] | 105 | 125 | 110 | 
Clc1ccc(CCC(Cn2ccnc2)Sc2c(Cl)cccc2Cl)cc1 (stereo not drawn) [Butoconazole nitrate] | 97 | 109 | 98 | 
O=C(O[C@H]1C[N+]2(CCCOc3ccccc3)CCC1CC2)C(O)(c1cccs1)c1cccs1 [Aclidinium Bromide] |  |  |  | % Phosphatase Activity (compared to DMSO) PRL-1 (recombinant PRL-1): 106%; % Phosphatase Activity (compared to DMSO) PRL-2 (recombinant PRL-2): 117%; % Phosphatase Activity (compared to DMSO) PRL-3 (recombinant PRL-3): 90%
CCn1cc(C(=O)O)c(=O)c2ccc(C)nc21 [Nalidixic acid] | 112 | 122 | 100 | 
CNC[C@H](O)c1ccc(O)c(O)c1 [Epinephrine HCl] |  |  |  | % Phosphatase Activity (compared to DMSO) PRL-1 (recombinant PRL-1): 98%; % Phosphatase Activity (compared to DMSO) PRL-2 (recombinant PRL-2): 132%; % Phosphatase Activity (compared to DMSO) PRL-3 (recombinant PRL-3): 90%
NC(=O)c1cnccn1 [Pyrazinamide] | 85 | 93 | 95 | 
CCOC(=O)c1ccc(N)cc1.Cl [Benzocaine hydrochloride] | 100 | 102 | 84 | 

Compound | % Phosphatase Activity (compared to DMSO) PRL-1 (recombinant PRL-1; [1]) [%] | % Phosphatase Activity (compared to DMSO) PRL-2 (recombinant PRL-2; [1]) [%] | % Phosphatase Activity (compared to DMSO) PRL-3 (recombinant PRL-3; [1]) [%] | further results
CCOC(=O)N[C@@H]1CC[C@@H]2[C@@H](C1)C[C@H]1C(=O)O[C@H](C)[C@H]1[C@H]2/C=C/c1ccc(-c2cccc(F)c2)cn1 [Vorapaxar] |  |  |  | % Phosphatase Activity (compared to DMSO) PRL-1 (recombinant PRL-1; [2]): 95%; % Phosphatase Activity (compared to DMSO) PRL-2 (recombinant PRL-2; [2]): 73%; % Phosphatase Activity (compared to DMSO) PRL-3 (recombinant PRL-3; [2]): 86%
CC(c1cc2ccccc2s1)N(O)C(N)=O (stereo not drawn) [Zileuton] |  |  |  | % Phosphatase Activity (compared to DMSO) PRL-1 (recombinant PRL-1; [2]): 96%; % Phosphatase Activity (compared to DMSO) PRL-2 (recombinant PRL-2; [2]): 86%; % Phosphatase Activity (compared to DMSO) PRL-3 (recombinant PRL-3; [2]): 87%
CCCCCCCCCC(=O)N[C@@H](Cc1c[nH]c2ccccc12)C(=O)N[C@H](CC(N)=O)C(=O)N[C@@H](CC(=O)O)C(=O)N[C@@H]1C(=O)NCC(=O)N[C@@H](CCCN)C(=O)N[C@@H](CC(=O)O)C(=O)N[C@H](C)C(=O)N[C@@H](CC(=O)O)C(=O)NCC(=O)N[C@H](CO)C(=O)N[C@@H]([C@H](C)CC(=O)O)C(=O)N[C@@H](CC(=O)c2ccccc2N)C(=O)O[C@@H]1C [Daptomycin] | 90 | 75 | 95 | 
NC(=O)N1c2ccccc2C=Cc2ccccc21 [Carbamazepine] | 98 | 112 | 80 | 
CCN(CCCc1ccccc1)CCCc1ccccc1 [Alverine Citrate] | 97 | 107 | 95 | 
Cl.NCCS [Cysteamine HCl] | 91 | 79 | 70 | 
C[C@H](O)C(=O)Nc1c(I)c(C(=O)NC(CO)CO)c(I)c(C(=O)NC(CO)CO)c1I [Iopamidol] | 96 | 98 | 90 | 
CC(C)c1nc(N(C)S(C)(=O)=O)nc(-c2ccc(F)cc2)c1/C=C/[C@@H](O)C[C@@H](O)CC(=O)O [Rosuvastatin Calcium] | 107 | 99 | 83 | 
CN(C)[C@@H]1C(O)=C(C(N)=O)C(=O)[C@@]2(O)C(O)=C3C(=O)c4c(O)cccc4[C@@](C)(O)[C@H]3C[C@@H]12 [Tetracycline HCl] |  |  |  | % Phosphatase Activity (compared to DMSO) PRL-1 (recombinant PRL-1; [2]): 99%; % Phosphatase Activity (compared to DMSO) PRL-2 (recombinant PRL-2; [2]): 86%; % Phosphatase Activity (compared to DMSO) PRL-3 (recombinant PRL-3; [2]): 61%
CO[C@H]1/C=C/O[C@@]2(C)Oc3c(C)c(O)c4c(O)c(c(/C=N/N5CCN(C6CCCC6)CC5)c(O)c4c3C2=O)NC(=O)/C(C)=C\C=C\[C@H](C)[C@H](O)[C@@H](C)[C@@H](O)[C@@H](C)[C@H](OC(C)=O)[C@@H]1C [Rifapentine] | 61 | 57 | 74 | 
CN[C@@H]1[C@@H](O)[C@@H](O[C@@H]2[C@@H](O)[C@H](O[C@H]3OC(CN)=CC[C@H]3N)[C@@H](N)C[C@H]2N)OC[C@]1(C)O [Sisomicin sulfate] |  |  |  | % Phosphatase Activity (compared to DMSO) PRL-1 (recombinant PRL-1; [2]): 83%; % Phosphatase Activity (compared to DMSO) PRL-2 (recombinant PRL-2; [2]): 84%; % Phosphatase Activity (compared to DMSO) PRL-3 (recombinant PRL-3; [2]): 107%
O=N[O-].[Na+] [Sodium Nitrite] |  |  |  | % Phosphatase Activity (compared to DMSO) PRL-1 (recombinant PRL-1): 94%; % Phosphatase Activity (compared to DMSO) PRL-2 (recombinant PRL-2): 116%; % Phosphatase Activity (compared to DMSO) PRL-3 (recombinant PRL-3): 75%
CS(=O)(=O)c1ccc(C(=O)Nc2ccc(Cl)c(-c3ccccn3)c2)c(Cl)c1 [Vismodegib (GDC-0449)] |  |  |  | % Phosphatase Activity (compared to DMSO) PRL-1 (recombinant PRL-1; [2]): 94%; % Phosphatase Activity (compared to DMSO) PRL-2 (recombinant PRL-2; [2]): 99%; % Phosphatase Activity (compared to DMSO) PRL-3 (recombinant PRL-3; [2]): 79%
CC(=O)Oc1cc2c(s1)CCN(C(C(=O)C1CC1)c1ccccc1F)C2 (stereo not drawn) [Prasugrel] | 91 | 88 | 79 | 
COCCc1ccc(OCC(O)CNC(C)C)cc1 (stereo not drawn) [Metoprolol Tartrate] | 89 | 109 | 98 | 
Cc1ccsc1C(=CCCN1CCC[C@@H](C(=O)O)C1)c1sccc1C [Tiagabine] |  |  |  | % Phosphatase Activity (compared to DMSO) PRL-1 (recombinant PRL-1; [2]): 100%; % Phosphatase Activity (compared to DMSO) PRL-2 (recombinant PRL-2; [2]): 104%; % Phosphatase Activity (compared to DMSO) PRL-3 (recombinant PRL-3; [2]): 78%
